IC50 and inhibition data for 30 compounds are collected here from patent US8575156B2, “Cyclic inhibitors of 11β-hydroxysteroid dehydrogenase 1” (Vitae Pharmaceuticals, Inc., priority 2007, dated 2013).

pIC50: −log10 of the molar value. Like-named read-outs stand apart in the source and are kept apart here.

In this test the target is 11β-HSD1 (Homo sapiens, UniProt P28845). The test is described as follows: biochemical. Conditions: for pIC50: IC50 Range.
The mark [1] stands for this setting: Biological Test Example 1, microsomes from CHO cells overexpressing human 11β-HSD1.
The mark [2] stands for this setting: read-out: Average % inhibition at 100 nM, Biological Test Example 1, 100 nM compound.
Where [3] appears, read: read-out: Average % inhibition at 100 nM, Biological Test Example 1, 100 nM.
[4] abbreviates: read-out: Average % inhibition at 100 nM.

11β-HSD1, sequence (P28845 whole entry): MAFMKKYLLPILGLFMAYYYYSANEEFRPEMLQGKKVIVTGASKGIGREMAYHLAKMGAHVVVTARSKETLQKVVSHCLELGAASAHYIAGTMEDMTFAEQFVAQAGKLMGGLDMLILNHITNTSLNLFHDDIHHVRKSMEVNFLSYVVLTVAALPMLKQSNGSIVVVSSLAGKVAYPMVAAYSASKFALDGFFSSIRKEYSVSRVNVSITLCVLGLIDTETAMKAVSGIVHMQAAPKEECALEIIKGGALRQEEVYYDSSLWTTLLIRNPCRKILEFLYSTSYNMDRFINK

As usually defined, the pIC50 is the IC50 on a negative log10 scale, so that one unit is a factor of ten. Low readings indicate a large IC50, high ones a small IC50. In general, inhibition refers to the drop in the measured response relative to a control, in per cent. Under setting [1], `C[C@@H](c1cccc(F)c1)N1CC[C@](CCC(N)=O)(c2ccc(F)cc2)OC1=O` [EXAMPLE 288, 3-((R)-6-(4-fluorophenyl)-3-((S)-1-(3-fluorophenyl)ethyl)-2-oxo-1,3-oxazinan-6-yl)propanamide] showed a pIC50 above 7.00. Under setting [2], the inhibition at 0.1 µM worked out at 72.4%.
On to `C[C@@H](c1cccc(C(F)(F)F)c1)N1CC[C@](CCCO)(c2ccc(F)cc2)OC1=O` [EXAMPLE 293, (R)-6-(4-fluorophenyl)-6-(3-hydroxypropyl)-3-((S)-1-(3-(trifluoromethyl)phenyl)ethyl)-1,3-oxazinan-2-one], for which the pIC50 under setting [1] was above 7.00. Further, under setting [2], the inhibition at 0.1 µM is 94%.
The like results for `C[C@@H](c1ccc(C(F)(F)F)cc1)N1CC[C@](CCCO)(c2ccc(F)cc2)OC1=O` [EXAMPLE 294, (R)-6-(4-fluorophenyl)-6-(3-hydroxypropyl)-3-((S)-1-(4-(trifluoromethyl)phenyl)ethyl)-1,3-oxazinan-2-one] were, in that order, above 7.00 and 97.2%.
Under setting [1], `C[C@@H](c1cccc(C(F)(F)F)c1)N1CC[C@](CCC(N)=O)(c2ccc(F)cc2)OC1=O` [EXAMPLE 299, 3-((R)-6-(4-fluorophenyl)-2-oxo-3-((S)-1-(3-(trifluoromethyl)phenyl)ethyl)-1,3-oxazinan-6-yl)propanamide] had a pIC50 above 7.00. Also, under setting [2], the inhibition at 0.1 µM is 71.7%.
For `COc1ccc([C@H](C)N2CC[C@](CCNS(C)(=O)=O)(c3ccc(F)cc3)OC2=O)cc1` [EXAMPLE 301, N-(2-((S)-6-(4-fluorophenyl)-3-((S)-1-(4-methoxyphenyl)ethyl)-2-oxo-1,3-oxazinan-6-yl)ethyl)methanesulfonamide], in that order: above 7.00 and 86.7%.
With `C[C@@H](c1ccc(S(C)(=O)=O)cc1)N1CC[C@](CCO)(c2ccc(F)cc2)OC1=O` [EXAMPLE 308, (S)-6-(4-fluorophenyl)-6-(2-hydroxyethyl)-3-((S)-1-(4-(methylsulfonyl)phenyl)ethyl)-1,3-oxazinan-2-one], the pIC50 under setting [1] was below 6.00. Besides, the inhibition at 0.1 µM under setting [3] was found to be 25%. Also, the inhibition at 0.1111 µM (read-out: Average % inhibition at 111.1 nM, Biological Test Example 1, 111.1 nM) amounted to 8.6%.
On to `C[C@@H](c1ccc(-c2ccc(F)cc2)cc1)N1CC[C@](CCCOP(=O)(O)O)(c2ccccc2)OC1=O` [EXAMPLE 310, 3-((R)-3-((S)-1-(4′-fluorobiphenyl-4-yl)ethyl)-2-oxo-6-phenyl-1,3-oxazinan-6-yl)propyl dihydrogen phosphate], for which the pIC50 under setting [1] is above 7.00. For the same compound, the inhibition at 0.1 µM under setting [3] is 77.5%.
For `Cc1cc(-c2ccc([C@H](C)N3CC[C@](CCCO)(c4ccc(F)cc4)OC3=O)cc2)ccn1` [EXAMPLE 311, (R)-6-(4-fluorophenyl)-6-(3-hydroxypropyl)-3-((S)-1-(4-(2-methylpyridin-4-yl)phenyl)ethyl)-1,3-oxazinan-2-one], in that order: above 7.00 and 96.7%.
`C[C@@H](c1ccc(CC(C)(C)O)cc1)N1CC[C@](CCCO)(c2ccccc2)OC1=O` [EXAMPLE 312, (R)-3-((S)-1-(4-(2-hydroxy-2-methylpropyl)phenyl)ethyl)-6-(3-hydroxypropyl)-6-phenyl-1,3-oxazinan-2-one] showed a pIC50 under setting [1] above 7.00. Besides, the inhibition at 0.1 µM under setting [4] worked out at 85.7%.
Regarding `COc1ccc([C@H](C)N2CC[C@](CCCNS(C)(=O)=O)(c3ccc(F)cc3)OC2=O)cc1` [EXAMPLE 314, N-(3-((R)-6-(4-fluorophenyl)-3-((S)-1-(4-methoxyphenyl)ethyl)-2-oxo-1,3-oxazinan-6-yl)propyl)methanesulfonamide], the pIC50 under setting [1] was above 7.00. Under setting [3], the inhibition at 0.1 µM amounted to 96.5%.
The like results for `COc1ccc([C@H](C)N2CC[C@](CCC(N)=O)(c3ccccc3)OC2=O)cc1` [EXAMPLE 315, 3-((R)-3-((S)-1-(4-methoxyphenyl)ethyl)-2-oxo-6-phenyl-1,3-oxazinan-6-yl)propanamide] were, in that order, above 7.00 and 93.2%.
Take `C[C@@H](C1CCCCC1)N1CC[C@](CCC(N)=O)(c2ccc(F)cc2)OC1=O` [EXAMPLE 317, 3-((R)-3-((S)-1-cyclohexylethyl)-6-(4-fluorophenyl)-2-oxo-1,3-oxazinan-6-yl)propanamide]: the pIC50 under setting [1] was above 7.00. Besides, the inhibition at 0.1 µM under setting [3] stood at 87.5%.
The like results for `C[C@@H](C1CCCCC1)N1CC[C@](CCNS(C)(=O)=O)(c2ccc(F)cc2)OC1=O` [EXAMPLE 318, N-(2-((S)-3-((S)-1-cyclohexylethyl)-6-(4-fluorophenyl)-2-oxo-1,3-oxazinan-6-yl)ethyl)methanesulfonamide] were, in that order, above 7.00 and 83.8%.
The compound `C[C@@H](C1CCCCC1)N1CC[C@](CCCNS(C)(=O)=O)(c2ccc(F)cc2)OC1=O` [EXAMPLE 319, N-(3-((R)-3-((S)-1-cyclohexylethyl)-6-(4-fluorophenyl)-2-oxo-1,3-oxazinan-6-yl)propyl)methanesulfonamide] gave a pIC50 under setting [1] above 7.00. For the same compound, the inhibition at 0.1 µM under setting [3] was 93.4%.
The like results for `CC(=O)C[C@]1(c2ccc(F)cc2)CCN([C@@H](C)c2ccc(OC(F)F)cc2)C(=O)O1` [EXAMPLE 321, (S)-3-((S)-1-(4-(difluoromethoxy)phenyl)ethyl)-6-(4-fluorophenyl)-6-(2-oxopropyl)-1,3-oxazinan-2-one] were, in that order, above 7.00 and 96.1%.
For `CC[C@@H](c1ccc(OC(F)F)cc1)N1CC[C@](CCC(N)=O)(c2ccc(F)cc2)OC1=O` [EXAMPLE 326, 3-((R)-3-((S)-1-(4-(difluoromethoxy)phenyl)propyl)-6-(4-fluorophenyl)-2-oxo-1,3-oxazinan-6-yl)propanamide], in that order: above 7.00 and 97.7%.
The like results for `C[C@@H](c1ccc(OC(F)F)cc1)N1CC[C@](CCO)(c2ccccc2)OC1=O` [EXAMPLE 327, (S)-3-((S)-1-(4-(difluoromethoxy)phenyl)ethyl)-6-(2-hydroxyethyl)-6-phenyl-1,3-oxazinan-2-one] were, in that order, above 7.00 and 97.2%.
For `C[C@@H](c1ccc(OC(F)F)cc1)N1CC[C@](CCCO)(c2ccccc2)OC1=O` [EXAMPLE 329, (R)-3-((S)-1-(4-(difluoromethoxy)phenyl)ethyl)-6-(3-hydroxypropyl)-6-phenyl-1,3-oxazinan-2-one], the pIC50 under setting [1] is above 7.00. In addition, the inhibition at 0.1 µM under setting [3] stood at 99.8%.
For `C[C@@H](c1ccc(OC(F)F)cc1)N1CC[C@](CCCNS(C)(=O)=O)(c2ccccc2)OC1=O` [EXAMPLE 331, N-(3-((R)-3-((S)-1-(4-(difluoromethoxy)phenyl)ethyl)-2-oxo-6-phenyl-1,3-oxazinan-6-yl)propyl)methanesulfonamide], the pIC50 under setting [1] is above 7.00. For the same compound, under setting [3], the inhibition at 0.1 µM turned out to be 97.1%.
The like results for `CC(C)(C)OC(=O)N1CCC[C@H](N2CC[C@](CCC(N)=O)(c3ccc(F)cc3)OC2=O)C1` [EXAMPLE 339, (S)-tert-butyl 3-((R)-6-(3-amino-3-oxopropyl)-6-(4-fluorophenyl)-2-oxo-1,3-oxazinan-3-yl)piperidine-1-carboxylate] were, in that order, above 7.00 and 65.9%.
Under setting [1], `O=C(OCc1ccccc1)N1CCC[C@H](N2CC[C@](CCCO)(c3ccc(F)cc3)OC2=O)C1` [EXAMPLE 340, (S)-benzyl 3-((R)-6-(4-fluorophenyl)-6-(3-hydroxypropyl)-2-oxo-1,3-oxazinan-3-yl)piperidine-1-carboxylate] gave a pIC50 above 7.00. Moreover, the inhibition at 0.1 µM under setting [4] turned out to be 75.9%.
Take `O=C1O[C@@](CCCO)(c2ccc(F)cc2)CCN1[C@H]1CCCN(Cc2ccccc2)C1` [EXAMPLE 341, (R)-3-((S)-1-benzylpiperidin-3-yl)-6-(4-fluorophenyl)-6-(3-hydroxypropyl)-1,3-oxazinan-2-one]: the pIC50 is above 7.00. Also, under setting [4], the inhibition at 0.1 µM amounted to 82%.
As for `O=C1OC(CCCO)(c2ccc(F)cc2)CCN1Cc1ccc(Cl)cc1Cl` (stereo not shown) [EXAMPLE 343, 3-(2,4-dichlorobenzyl)-6-(4-fluorophenyl)-6-(3-hydroxypropyl)-1,3-oxazinan-2-one], the pIC50 under setting [1] is above 7.00. The inhibition at 0.1 µM under setting [4] was determined as 82.3%.
With `C=CCC1(c2ccc(F)cc2)CCN(Cc2cc(Cl)ccc2Cl)C(=O)O1` (stereo not shown) [EXAMPLE 344, 6-allyl-3-(2,5-dichlorobenzyl)-6-(4-fluorophenyl)-1,3-oxazinan-2-one], the pIC50 under setting [1] is above 7.00. Besides, under setting [3], the inhibition at 0.1 µM came to 65.7%.
For `O=C1OC(CCCO)(c2ccc(F)cc2)CCN1Cc1cc(Cl)ccc1Cl` (stereo not shown) [EXAMPLE 345, 3-(2,5-dichlorobenzyl)-6-(4-fluorophenyl)-6-(3-hydroxypropyl)-1,3-oxazinan-2-one], in that order: above 7.00 and 74.7%.
For `C=CCC1(c2ccc(F)cc2)CCN(Cc2c(Cl)cccc2Cl)C(=O)O1` (stereo not shown) [EXAMPLE 346, 6-allyl-3-(2,6-dichlorobenzyl)-6-(4-fluorophenyl)-1,3-oxazinan-2-one], in that order: above 7.00 and 94%.
The like results for `O=C1OC(CCCO)(c2ccc(F)cc2)CCN1Cc1c(Cl)cccc1Cl` (stereo not shown) [EXAMPLE 347, 3-(2,6-dichlorobenzyl)-6-(4-fluorophenyl)-6-(3-hydroxypropyl)-1,3-oxazinan-2-one] were, in that order, above 7.00 and 96%.
Under setting [1], `O=C1OC(CCCO)(c2ccc(F)cc2)CCN1Cc1c(F)cccc1F` (stereo not shown) [EXAMPLE 348, 3-(2,6-difluorobenzyl)-6-(4-fluorophenyl)-6-(3-hydroxypropyl)-1,3-oxazinan-2-one] showed a pIC50 above 7.00. Further, the inhibition at 0.1 µM under setting [3] turned out to be 48.9%.
For `O=C1OC(CCCO)(c2ccc(F)cc2)CCN1Cc1c(F)cccc1Cl` (stereo not shown) [EXAMPLE 349, 3-(2-chloro-6-fluorobenzyl)-6-(4-fluorophenyl)-6-(3-hydroxypropyl)-1,3-oxazinan-2-one], in that order: above 7.00 and 89.8%.
The like results for `C=CCC1(c2ccc(F)cc2)CCN(Cc2ccccc2Br)C(=O)O1` (stereo not shown) [EXAMPLE 350, 6-allyl-3-(2-bromobenzyl)-6-(4-fluorophenyl)-1,3-oxazinan-2-one] were, in that order, above 7.00 and 91.8%.
